These antisense oligonucleotides have a phosphorothioate backbone; sugars and methylation of C are not fully specified.

What all share (conditions): ASO
Data set [1] deals with RHOG.
Data set [2] concerns the target CHEK2.
Data set [3] concerns the target PRKAR2A.
Further: test concentration or dose not given here.

As for AAAAGGCATTCAGGGAAC, in data set [1], the remaining target (mRNA or protein) (fraction of control) was no less than 1.

The sequence AAACTTTCTCTTCATGTCTT registered a remaining target (mRNA or protein) (fraction of control) in data set [2] of no less than 1.

Regarding AAAGCGTTAGTTGTGTAG, the remaining target (mRNA or protein) (fraction of control) in data set [1] was no less than 1.

AACATCCGACTCCCGAGACA yielded a remaining target (mRNA or protein) (fraction of control) in data set [2] of 0.65. Consider AACTGTGTGGAAAGCTGG, for which the remaining target (mRNA or protein) (fraction of control) in data set [1] turned out to be 0.92. In the case of AACTTCTTGACAAGGTCCAG, in data set [2], the remaining target (mRNA or protein) (fraction of control) came out at 0.8. In data set [1], AAGAGGATGCAGGACCGC returned a remaining target (mRNA or protein) (fraction of control) of 0.82. With AAGGAGAATATCTTTGCAAG, in data set [3], the remaining target (mRNA or protein) (fraction of control) was no less than 1. In turn, AAGGCTTCTTCTGTCGTAAA returned a remaining target (mRNA or protein) (fraction of control) in data set [2] of 0.96. In data set [2], AAGGGCCCATAATCGAGCCC returned a remaining target (mRNA or protein) (fraction of control) of 0.78.

Turning to AATCCGAAAGTGTTTCTTGC, the remaining target (mRNA or protein) (fraction of control) in data set [2] is no less than 1. With AATGCCCATAACCACAGCAA, in data set [3], the remaining target (mRNA or protein) (fraction of control) stood at 0.39. Consider ACACCATCCTGTTGCAGG, for which, in data set [1], the remaining target (mRNA or protein) (fraction of control) is 0.77. Same read-out and setting: as for ACAGCCTCGGCGAACACT, the figure is 0.94; as for ACATTCACCTTCTCAGGA, 0.8. On the same count and under the same terms, the value for ACCACAATAGGCAGCAAC was 0.69; that for ACCTCTGGATGCCACTTG was 0.65; that for ACGTTGGTCTGAGGGTAG was 0.62. For AGAATAACTCCTAAACTCCA, the remaining target (mRNA or protein) (fraction of control) in data set [2] was 0.82.

With AGCAGTCCCAACAGAAACAA, in data set [2], the remaining target (mRNA or protein) (fraction of control) came out at 0.95.

In data set [1], AGCTGGATGAACTGGTCA displayed a remaining target (mRNA or protein) (fraction of control) of 0.77.

In data set [2], AGGAATAGAATAGAGTTCCT came in with a remaining target (mRNA or protein) (fraction of control) of no less than 1. Sequence AGGCGGGTGAAGTACTCCAC registered a remaining target (mRNA or protein) (fraction of control) in data set [3] of 0.46.

In data set [1], AGGGCAGTGGTGGCACAC had a remaining target (mRNA or protein) (fraction of control) of 0.85.

ATAACTAAGCATTTGACATC displayed a remaining target (mRNA or protein) (fraction of control) in data set [3] of 0.94.

ATCTGGATGTGGCTCATGCC registered a remaining target (mRNA or protein) (fraction of control) in data set [3] of 0.82. In turn, ATCTGTATCTTCCTCTTCCT showed a remaining target (mRNA or protein) (fraction of control) in data set [3] of 0.73. Sequence ATGTGGCTCATGCCGGCGGC displayed a remaining target (mRNA or protein) (fraction of control) in data set [3] of 0.95. Consider ATTCTCTGGCTTTAAGTCAC, for which, in data set [2], the remaining target (mRNA or protein) (fraction of control) is 0.63. On the same count and under the same terms, the value for ATTTCTGCTTAGTGACAGTG was 0.65. CAATGACATGCTCATCAGCT had a remaining target (mRNA or protein) (fraction of control) in data set [3] of 0.74. In the case of CAATGGAGAAACAGATGA, the remaining target (mRNA or protein) (fraction of control) in data set [1] was no less than 1. Sequence CAATTCCAAGAGCAGCGA had a remaining target (mRNA or protein) (fraction of control) in data set [1] of 0.82.

CACACCTACTGCCCGAGGTT gave a remaining target (mRNA or protein) (fraction of control) in data set [3] of 0.38. As for CAGAGTGAAAGAAGGACATT, the remaining target (mRNA or protein) (fraction of control) in data set [2] was no less than 1. For CAGCAGGATGGGCACATC, the remaining target (mRNA or protein) (fraction of control) in data set [1] is 0.8. The sequence CAGGAACAGTTCTGTCATGT came in with a remaining target (mRNA or protein) (fraction of control) in data set [3] of 0.65.

Sequence CAGTAGTTGTCATTCACACA showed a remaining target (mRNA or protein) (fraction of control) in data set [2] of 0.49.

CAGTGTCCCAGAGCTGGAGT: the remaining target (mRNA or protein) (fraction of control) in data set [2] was no less than 1. In data set [1], CATAGGACGGCGGACTGG showed a remaining target (mRNA or protein) (fraction of control) of 0.83. For the sequence CATGAGAGAGGTCTCTCCCA, in data set [2], the remaining target (mRNA or protein) (fraction of control) was 0.85. In turn, CATGCCGGCGGCGGCCGAAG had a remaining target (mRNA or protein) (fraction of control) in data set [3] of no less than 1. Sequence CATTCGAGGTAGCGCACA yielded a remaining target (mRNA or protein) (fraction of control) in data set [1] of 0.61. Turning to CCACCACGCACTTGATGC, the remaining target (mRNA or protein) (fraction of control) in data set [1] was 0.86. Consider CCACGGAGTTCACAACACAG, for which the remaining target (mRNA or protein) (fraction of control) in data set [2] is 0.74. In turn, CCATCAATTCCAAAACAATA came in with a remaining target (mRNA or protein) (fraction of control) in data set [2] of no less than 1. In data set [3], CCATGCAGGGCCCCAGAAGC registered a remaining target (mRNA or protein) (fraction of control) of 0.52. Take CCATTGCCACTGTGATCTTC: the remaining target (mRNA or protein) (fraction of control) in data set [2] came out at 0.46. Take CCCGAGGTTGCCCAGATCCA: in data set [3], the remaining target (mRNA or protein) (fraction of control) is no less than 1.

In data set [1], CCCTGCTGCGGTGTGATG gave a remaining target (mRNA or protein) (fraction of control) of 0.56. For CGCACGGCCCCGGCTCACGT, in data set [3], the remaining target (mRNA or protein) (fraction of control) was determined as 0.68. Sequence CGCACGTTCTCATAGGAC gave a remaining target (mRNA or protein) (fraction of control) in data set [1] of 0.76. In the case of CGCGAGTGCCTGGCCCTG, in data set [1], the remaining target (mRNA or protein) (fraction of control) worked out at 0.91.

Regarding CGGGATCTGGATGTGGCTCA, in data set [3], the remaining target (mRNA or protein) (fraction of control) stood at 0.81. CGTGCTGGTAGAGGAGCTGG: the remaining target (mRNA or protein) (fraction of control) in data set [2] worked out at 0.77.

In data set [3], CTAGGAACTGGAACTTCCAA showed a remaining target (mRNA or protein) (fraction of control) of 0.91. CTCATGCCGGCGGCGGCCGA showed a remaining target (mRNA or protein) (fraction of control) in data set [3] of 0.96. On to CTCTCGAAAGCCAGCTTTAC, for which the remaining target (mRNA or protein) (fraction of control) in data set [2] was found to be 0.31.

Values taken from the OligoGym collection.
